Assay results as given in patent US9096594B2, “Kinase inhibitors and methods of use thereof” (priority 2012, dated 2015).
Where two headings read alike, the source gives them in different places.

Experiments:
[1] = target: T1, GSK3β (Homo sapiens (Human), UniProt P49841); test: biochemical
Experimental: Human GSK3β as a GST fusion expressed in baculoviral system was purchased from BPS Bioscience (San Diego, Calif.). […] Reactions were incubated at room temperature for 60 minutes. 2.5 μL/well of ADP-Glo (Promega, V9103) was added with BioRAPTR, and incubated at room temperature for 40 minutes followed by addition of 5 μL/well of ADP-Glo detection reagent (Promega, V9103) with Combi nL (Thermo, Waltham, Mass.) and incubation at room temperature for 30 minutes. The plates were read on a ViewLux (PerkinElmer, Waltham, Mass.) for luminescence. Data were scaled using the positive and neutral controls and fitted for IC50 as described below.
100 mL/well compounds were pinned. […] Incubated at room temperature for 60 minutes. Added 20 μL/well of ADP-glo (Promega, V9103) with Combi, and incubated at room temperature for 40 minutes. Added 40 μL/well of ADP-glo (Promega, V9103) with Combi, incubated at room temperature for 30 minutes. Read on Envision for luminescence.

[2] = target: T2, GSK3α (Homo sapiens (Human), UniProt P49840); test: biochemical
Experimental: GSK3β Microfluidic Mobility-Shift Assay
(§1) Reactions were terminated by the addition of 10 mM EDTA. Substrate and product were separated electrophoretically and fluorescence intensity of the substrate and product was determined by Labchip EZ Reader II (Caliper Life Sciences, MA). The kinase activity was measured as percent conversion. The reactions were performed in duplicate for each sample. […] The results were analyzed by Genedata Assay Analyzer. The percent inhibition was plotted against the compound concentration and the IC50 value was determined from the logistic dose-response curve fitting.

[3] = target: T1, GSK3β; test: biochemical; remark: listed apart in the source
[4] = target: T1, GSK3β; test: biochemical; remark: listed apart in the source
[5] = target: CK1δ (Homo sapiens (Human), UniProt P48730); test: biochemical
Text: Approximately 20,000 Response Units (RU) of anti GST-antibody (GE Healthcare Life Sciences) were immobilized on Flow Cell (FC) 1 and FC2 of a new, freshly conditioned CM5 Sensor Chip (GE Healthcare Life Sciences) in a Biacore T100 instrument utilizing the immobilization wizard of the T100 software package. Approximately 1,500 RU of recombinant GST (GE Healthcare Life Sciences) was then captured on FC1 utilizing the capture wizard protocol of the T100 software package. FC1 is used as a reference subtraction point for this and all SPR assays. Approximately 2,700 RU of recombinant GST-CK1δ was then captured on FC2 utilizing the capture wizard protocol of the T100 software package. FC2 is used as the active flowcell for this and all SPR assays. The analyte plate is generated in dose response fashion in TBS buffer containing a final concentration of 2% DMSO, with a final analyte concentration of 10 μM, 100 nM and 10 nM. A zero value is determined by running injections of buffer containing only 2% DMSO and no analyte. All injections are run in duplicate and are reference subtracted from FC1. A method consisting of a 60 second contact time and 60 second wash time with a flow rate of 30 μL/min was employed. […] Analysis of compounds was done using the 1:1 binding model and affinity measurements in the Biacore T100 evaluation software package.
Conditioning new chip: PBS immobilization buffer was loaded into buffer shelf and insert buffer line A. Unused CM5 sensor chip was loaded into instrument per user manual. Chip was primed with 6 minutes of buffer injection at 30 μL/min.
Primed chip again as described above. Generated anti GST antibody solution by mixing 4.5 μL anti GST antibody (GE Healthcare Life Sciences, GST Capture Kit) with 95.5 μL immobilization buffer (GE Healthcare Life Sciences, GST Capture Kit). Put solution into 700 μL small vial and cap. Repeated. Placed both vials in reagent rack 1 of Biacore T100 instrument and insert into machine per user manual. Initiated immobilization of anti GST antibody by utilizing the immobilization Wizard protocol of Biacore T100 software. Immobilized approximately 20,000 Response Units (RU) of anti GST antibody on FC1 and FC2. […] Inserted buffer line A. Repeated prime procedure. Generated GST protein solution by mixing 2 μL of recombinant GST (GE Healthcare Life Sciences, GST Capture Kit) with 98 μL TBS 2% DMSO buffer. Generated GST-CK1δ protein solution by mixing 5 μL of recombinant GST-CK1δ with 95 μL TBS 2% DMSO running buffer. Placed GST protein solution in position B1 on reagent rack 1. Placed GST-CK1δ protein solution in position Cl on reagent rack 1. Initiated a manual injection run and inject for 30 seconds at 5 μL/min GST protein solution on FC1 to generate reference flow cell. […] Captured approximately 1500 RU GST protein on FC1. Captured approximately 2700 RU GST-CK1δ protein on FC2.
An analyte plate was generated for the assay. Using a standard deep volume 384 well plate, placed 100 μL of a 10 μM analyte in TBS 2% DMSO solution wells A1 and A2. Placed 100 μL of a 50 nM analyte in TBS 2% DMSO solution in wells A3 and A4. Placed 100 μL of a 10 nM analyte in TBS 2% DMSO solution in wells A5 and A6. Placed 100 μL of TBS 2% DMSO running buffer in wells A7 and A8. Repeated steps for subsequent analytes. Placed analyte plate in Biacore T100 per user manual.

[6] = target: T1, GSK3β
[7] = target: CDK5/p25 (Homo sapiens (Human), UniProt Q00535)
Experimental: Biochemical characterization of these synthesized compounds were assayed against GSK3β and CDK5/p25, with CDK5/p25 serving as a counter target of GSK3β selectivity. […] The effects of these compounds on survival of SH-SY5Y pathophysiology cells were also monitored.

[8] = target: T2, GSK3α
Experimental: GSK3β Microfluidic Mobility-Shift Assay
as §1

T1 sequence (P49841 whole entry): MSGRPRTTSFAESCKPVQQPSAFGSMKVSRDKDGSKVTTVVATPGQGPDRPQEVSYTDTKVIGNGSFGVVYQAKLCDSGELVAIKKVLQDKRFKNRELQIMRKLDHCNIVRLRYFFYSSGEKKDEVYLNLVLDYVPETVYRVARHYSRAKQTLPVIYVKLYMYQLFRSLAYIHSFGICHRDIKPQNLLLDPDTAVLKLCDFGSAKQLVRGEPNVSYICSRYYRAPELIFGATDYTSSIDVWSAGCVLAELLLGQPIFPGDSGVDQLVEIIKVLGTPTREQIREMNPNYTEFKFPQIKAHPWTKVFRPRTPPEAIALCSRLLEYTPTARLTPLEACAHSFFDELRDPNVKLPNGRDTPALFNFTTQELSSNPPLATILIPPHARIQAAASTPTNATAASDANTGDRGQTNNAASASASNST
CDK5/p25, sequence (Q00535 whole entry, species assumed): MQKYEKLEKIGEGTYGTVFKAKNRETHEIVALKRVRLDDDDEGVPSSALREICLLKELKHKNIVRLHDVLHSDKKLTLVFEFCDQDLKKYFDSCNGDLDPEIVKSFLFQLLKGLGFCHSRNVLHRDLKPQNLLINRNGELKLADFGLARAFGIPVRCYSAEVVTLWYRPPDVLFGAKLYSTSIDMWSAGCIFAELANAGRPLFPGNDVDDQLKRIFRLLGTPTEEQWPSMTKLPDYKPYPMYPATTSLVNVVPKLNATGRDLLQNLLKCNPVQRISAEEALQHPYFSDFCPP
CDK5/p25, sequence (Q15078 99-307 partner, species assumed): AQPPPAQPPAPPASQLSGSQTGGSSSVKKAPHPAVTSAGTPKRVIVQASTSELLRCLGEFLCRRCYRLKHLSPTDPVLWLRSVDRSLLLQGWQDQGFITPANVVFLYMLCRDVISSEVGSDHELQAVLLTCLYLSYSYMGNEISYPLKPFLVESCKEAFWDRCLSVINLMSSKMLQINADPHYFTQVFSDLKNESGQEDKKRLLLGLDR
CK1δ, sequence (P48730 whole entry): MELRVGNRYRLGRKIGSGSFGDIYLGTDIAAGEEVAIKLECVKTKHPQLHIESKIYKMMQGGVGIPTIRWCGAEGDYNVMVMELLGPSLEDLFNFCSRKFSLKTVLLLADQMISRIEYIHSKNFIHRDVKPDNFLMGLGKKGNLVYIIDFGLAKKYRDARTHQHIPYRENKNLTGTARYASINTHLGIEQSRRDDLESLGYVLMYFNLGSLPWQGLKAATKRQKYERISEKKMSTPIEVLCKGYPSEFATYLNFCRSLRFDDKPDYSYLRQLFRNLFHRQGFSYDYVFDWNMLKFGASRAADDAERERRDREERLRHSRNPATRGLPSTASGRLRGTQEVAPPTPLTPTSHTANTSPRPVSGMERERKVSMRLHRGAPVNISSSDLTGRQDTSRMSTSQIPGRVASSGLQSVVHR
T2 sequence (P49840 whole entry): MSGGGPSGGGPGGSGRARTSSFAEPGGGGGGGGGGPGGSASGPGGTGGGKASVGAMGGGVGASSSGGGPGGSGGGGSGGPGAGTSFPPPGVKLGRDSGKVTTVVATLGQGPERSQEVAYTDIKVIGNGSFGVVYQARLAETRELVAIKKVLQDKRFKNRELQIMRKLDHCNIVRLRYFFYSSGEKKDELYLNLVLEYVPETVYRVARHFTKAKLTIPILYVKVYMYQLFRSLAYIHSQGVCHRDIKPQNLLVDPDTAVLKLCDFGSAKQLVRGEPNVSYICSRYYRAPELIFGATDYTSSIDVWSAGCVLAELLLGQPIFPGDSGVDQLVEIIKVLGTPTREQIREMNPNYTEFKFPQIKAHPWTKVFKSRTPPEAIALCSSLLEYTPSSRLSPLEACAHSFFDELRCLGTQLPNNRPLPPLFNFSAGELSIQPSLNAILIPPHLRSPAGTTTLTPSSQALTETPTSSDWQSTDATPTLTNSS

COc1ccc(C2C3=C(CC(C)(C)CC3=O)Nc3n[nH]c(C)c32)cc1 (stereo not shown) [Compound 24, 4-(4-methoxyphenyl)-3,7,7-trimethyl-6,7,8,9-tetrahydro-1H-pyrazolo[3,4-b]quinolin-5(4H)-one]
IC50 [1]: 5000 to 30000 nM
IC50 [2]: 5000 to 30000 nM
IC50 [3]: 1000 to 5000 nM
Kd [4]: 1000 to 5000 nM
Kd [5]: 1000 to 5000 nM

CC1(C)CC(=O)C2=C(C1)Nc1n[nH]c(C(F)(F)F)c1C2c1ccccc1 (stereo not shown) [Compound 52]
IC50 [6]: < 100 nM
ADP Glo Assay GSK3β vs CDK5 fold selectivity [7]: 615X

Cc1[nH]nc2c1C(c1ccccc1Br)C1=C(CC(C)(C)CC1=O)N2 (stereo not shown) [Compound 16]
IC50 [8]: < 100 nM
IC50 [6]: < 100 nM
ADP Glo Assay GSK3β vs CDK5 fold selectivity [7]: 14X

Cc1[nH]nc2c1C(c1ccsc1)C1=C(CC(C)(C)CC1=O)N2 (stereo not shown) [Compound 8, 3,7,7-trimethyl-4-(thiophen-3-yl)-6,7,8,9-tetrahydro-1H-pyrazolo[3,4-b]quinolin-5(4H)-one]
IC50 [1]: 1000 to 5000 nM
IC50 [2]: 101 to 1000 nM
IC50 [3]: 101 to 1000 nM
Kd [4]: 101 to 1000 nM
Kd [5]: 101 to 1000 nM

Cc1[nH]nc2c1C(c1cccc3nonc13)C1=C(CC(C)(C)CC1=O)N2 (stereo not shown) [Compound 41]
IC50 [6]: < 100 nM
ADP Glo Assay GSK3β vs CDK5 fold selectivity [7]: 51X

Cc1[nH]nc2c1C(c1ccc(F)cc1Cl)C1=C(CC(C)(C)CC1=O)N2 (stereo not shown) [Compound 35, 4-(2-chloro-4-fluorophenyl)-3,7,7-trimethyl-6,7,8,9-tetrahydro-1H-pyrazolo[3,4-b]quinolin-5(4H)-one]
ADP Glo Assay GSK3β vs CDK5 fold selectivity [7]: 7X
IC50 [1]: 1000 to 5000 nM
IC50 [2]: 101 to 1000 nM
IC50 [3]: 101 to 1000 nM
Kd [4]: 5000 to 30000 nM
Kd [5]: 5000 to 30000 nM

Cc1[nH]nc2c1C(c1ccc(Cl)cc1)C1=C(CC(C)(C)CC1=O)N2 (stereo not shown) [Compound 15, 4-(4-chlorophenyl)-3,7,7-trimethyl-6,7,8,9-tetrahydro-1H-pyrazolo[3,4-b]quinolin-5(4H)-one]
IC50 [1]: 1000 to 5000 nM
IC50 [2]: 101 to 1000 nM
IC50 [3]: 1000 to 5000 nM
Kd [4]: 1000 to 5000 nM
Kd [5]: 1000 to 5000 nM

Cc1[nH]nc2c1[C@@H](c1ccccc1C#N)C1=C(CC(C)(C)CC1=O)N2 [Compound 32, 2-(3,7,7-trimethyl-5-oxo-4,5,6,7,8,9-hexahydro-2H-pyrazolo[3,4-b]quinolin-4-yl)benzonitrile]
IC50 [8]: < 100 nM
IC50 [6]: < 100 nM
ADP Glo Assay GSK3β vs CDK5 fold selectivity [7]: 30X
IC50 [1]: 101 to 1000 nM

Cc1[nH]nc2c1C(c1ccn[nH]1)C1=C(CC(C)(C)CC1=O)N2 (stereo not shown) [Compound 40, 3,7,7-trimethyl-4-(1H-pyrazol-5-yl)-6,7,8,9-tetrahydro-1H-pyrazolo[3,4-b]quinolin-5(4H)-one]
IC50 [1]: 1000 to 5000 nM
IC50 [2]: 101 to 1000 nM
IC50 [3]: 101 to 1000 nM
Kd [4]: 5000 to 30000 nM
Kd [5]: 5000 to 30000 nM

COc1cccc(C2C3=C(CC(C)(C)CC3=O)Nc3n[nH]c(C)c32)c1 (stereo not shown) [Compound 23, 4-(3-methoxyphenyl)-3,7,7-trimethyl-6,7,8,9-tetrahydro-1H-pyrazolo[3,4-b]quinolin-5(4H)-one]
IC50 [1]: 101 to 1000 nM
IC50 [2]: 101 to 1000 nM
IC50 [3]: 101 to 1000 nM
Kd [4]: 5000 to 30000 nM
Kd [5]: 1000 to 5000 nM

Cc1[nH]nc2c1[C@H](c1ccccc1C(F)(F)F)C1=C(CC(C)(C)CC1=O)N2 (racemic) [Compound 28, 3,7,7-trimethyl-4-(2-(trifluoromethyl)phenyl)-6,7,8,9-tetrahydro-2H-pyrazolo[3,4-b]quinolin-5(4H)-one]
IC50 [8]: < 100 nM
IC50 [6]: < 100 nM
ADP Glo Assay GSK3β vs CDK5 fold selectivity [7]: 12X
IC50 [1]: < 100 nM

Cc1[nH]nc2c1C(c1cccc(Cl)c1)C1=C(CC(C)(C)CC1=O)N2 (stereo not shown) [Compound 14, 4-(3-chlorophenyl)-3,7,7-trimethyl-6,7,8,9-tetrahydro-1H-pyrazolo[3,4-b]quinolin-5(4H)-one]
IC50 [8]: < 100 nM
IC50 [1]: 101 to 1000 nM
IC50 [3]: 101 to 1000 nM
Kd [4]: 101 to 1000 nM
Kd [5]: 101 to 1000 nM

Cc1[nH]nc2c1C(c1ccc(Br)cn1)C1=C(CC(C)(C)CC1=O)N2 (stereo not shown) [Compound 39, 4-(5-bromopyridin-2-yl)-3,7,7-trimethyl-6,7,8,9-tetrahydro-1H-pyrazolo[3,4-b]quinolin-5(4H)-one]
IC50 [1]: 1000 to 5000 nM
IC50 [2]: 1000 to 5000 nM
IC50 [3]: 1000 to 5000 nM
Kd [4]: 5000 to 30000 nM
Kd [5]: 5000 to 30000 nM

CC1(C)CC(=O)C2=C(C1)Nc1n[nH]c(C(F)(F)F)c1C2c1cccc(F)c1C(F)(F)F (stereo not shown) [Compound 63]
IC50 [6]: < 100 nM
ADP Glo Assay GSK3β vs CDK5 fold selectivity [7]: 276X

CC1(C)CC(=O)C2=C(C1)Nc1n[nH]c(C(F)(F)F)c1C2(C)c1ccccc1 (racemic) [Compound 68, 4,7,7-trimethyl-4-phenyl-3-(trifluoromethyl)-6,7,8,9-tetrahydro-2H-pyrazolo[3,4-b]quinolin-5(4H)-one]
IC50 [8]: < 100 nM
IC50 [6]: < 100 nM
ADP Glo Assay GSK3β vs CDK5 fold selectivity [7]: 244X
IC50 [1]: < 100 nM

CSc1ccccc1C1C2=C(CC(C)(C)CC2=O)Nc2n[nH]c(C)c21 (stereo not shown) [Compound 25, 3,7,7-trimethyl-4-(2-(methylthio)phenyl)-6,7,8,9-tetrahydro-2H-pyrazolo[3,4-b]quinolin-5(4H)-one]
IC50 [8]: < 100 nM
IC50 [6]: < 100 nM
ADP Glo Assay GSK3β vs CDK5 fold selectivity [7]: 124X
IC50 [1]: < 100 nM

CCc1[nH]nc2c1C(c1ccccc1OC)C1=C(CC(C)(C)CC1=O)N2 (stereo not shown) [Compound 48]
IC50 [6]: < 100 nM
ADP Glo Assay GSK3β vs CDK5 fold selectivity [7]: 35X

Cc1[nH]nc2c1C(c1cccnc1)C1=C(CC(C)(C)CC1=O)N2 (stereo not shown) [Compound 37, 3,7,7-trimethyl-4-(pyridin-3-yl)-6,7,8,9-tetrahydro-1H-pyrazolo[3,4-b]quinolin-5(4H)-one]
IC50 [1]: 101 to 1000 nM
IC50 [2]: 101 to 1000 nM
IC50 [3]: 101 to 1000 nM
Kd [4]: 101 to 1000 nM
Kd [5]: 1000 to 5000 nM

Cc1[nH]nc2c1C(c1ccc(Cl)s1)C1=C(CC(C)(C)CC1=O)N2 (stereo not shown) [Compound 9, 4-(5-chlorothiophen-2-yl)-3,7,7-trimethyl-6,7,8,9-tetrahydro-1H-pyrazolo[3,4-b]quinolin-5(4H)-one]
IC50 [1]: 1000 to 5000 nM
IC50 [2]: 101 to 1000 nM
IC50 [3]: 101 to 1000 nM
Kd [4]: 101 to 1000 nM
Kd [5]: 1000 to 5000 nM

Cc1[nH]nc2c1C(c1ccc3c(c1)OCO3)C1=C(CC(C)(C)CC1=O)N2 (stereo not shown) [Compound 26, 4-(benzo[d][1,3]dioxol-5-yl)-3,7,7-trimethyl-6,7,8,9-tetrahydro-1H-pyrazolo[3,4-b]quinolin-5(4H)-one]
IC50 [1]: 1000 to 5000 nM
IC50 [2]: 101 to 1000 nM
IC50 [3]: 1000 to 5000 nM
Kd [4]: 1000 to 5000 nM
Kd [5]: 101 to 1000 nM

Cc1[nH]nc2c1C(c1cccs1)C1=C(CC(C)(C)CC1=O)N2 (racemic) [Compound 5, 3,7,7-trimethyl-4-(thiophen-2-yl)-6,7,8,9-tetrahydro-1H-pyrazolo[3,4-b]quinolin-5(4H)-one]
IC50 [1]: 101 to 1000 nM
IC50 [2]: 101 to 1000 nM
IC50 [3]: 101 to 1000 nM
Kd [4]: 101 to 1000 nM
Kd [5]: 101 to 1000 nM

Cc1[nH]nc2c1C(c1cccc(F)c1)C1=C(CC(C)(C)CC1=O)N2 (stereo not shown) [Compound 11, 4-(3-fluorophenyl)-3,7,7-trimethyl-6,7,8,9-tetrahydro-1H-pyrazolo[3,4-b]quinolin-5(4H)-one]
IC50 [8]: < 100 nM
ADP Glo Assay GSK3β vs CDK5 fold selectivity [7]: 61X
IC50 [1]: 101 to 1000 nM
IC50 [3]: 101 to 1000 nM
Kd [4]: 1000 to 5000 nM
Kd [5]: 101 to 1000 nM

COc1ccccc1C1C2=C(CC(C)(C)CC2=O)Nc2n[nH]c(C(C)C)c21 (stereo not shown) [Compound 49]
IC50 [6]: < 100 nM
ADP Glo Assay GSK3β vs CDK5 fold selectivity [7]: 14X

CC1(C)CC(=O)C2=C(C1)Nc1n[nH]c(C(F)(F)F)c1[C@@H]2c1ccccc1C(F)(F)F (racemic) [Compound 72, 7,7-dimethyl-3-(trifluoromethyl)-4-(2-(trifluoromethyl)phenyl)-6,7,8,9-tetrahydro-2H-pyrazolo[3,4-b]quinolin-5(4H)-one]
IC50 [8]: < 100 nM
IC50 [3]: < 100 nM

COC(=O)c1[nH]nc2c1C(C)(c1ccccc1)C1=C(CC(C)(C)CC1=O)N2 (stereo not shown) [Compound 104]
IC50 [8]: < 100 nM
IC50 [3]: < 100 nM

Cc1[nH]nc2c1C(c1ccccn1)C1=C(CC(C)(C)CC1=O)N2 (stereo not shown) [Compound 36, 3,7,7-trimethyl-4-(pyridin-2-yl)-6,7,8,9-tetrahydro-1H-pyrazolo[3,4-b]quinolin-5(4H)-one]
IC50 [1]: 101 to 1000 nM
IC50 [2]: 1000 to 5000 nM
IC50 [3]: 101 to 1000 nM
Kd [4]: 101 to 1000 nM
Kd [5]: 5000 to 30000 nM

Cc1[nH]nc2c1C(c1cccc(C#N)c1)C1=C(CC(C)(C)CC1=O)N2 (stereo not shown) [Compound 33, 3-(3,7,7-trimethyl-5-oxo-4,5,6,7,8,9-hexahydro-2H-pyrazolo[3,4-b]quinolin-4-yl)benzonitrile]
IC50 [8]: < 100 nM
IC50 [6]: < 100 nM
ADP Glo Assay GSK3β vs CDK5 fold selectivity [7]: 131X
IC50 [1]: < 100 nM

CC1(C)CC(=O)C2=C(C1)Nc1n[nH]c(C(F)(F)F)c1C2c1cc(F)ccc1C(F)(F)F (stereo not shown) [Compound 64]
IC50 [6]: < 100 nM
ADP Glo Assay GSK3β vs CDK5 fold selectivity [7]: 162X

CC1(C)CC(=O)C2=C(C1)Nc1n[nH]c(C3CC3)c1C2(C)c1ccccc1F (stereo not shown) [Compound 116]
IC50 [8]: < 100 nM
IC50 [3]: < 100 nM

CC1(C)CC(=O)C2=C(C1)Nc1n[nH]c(C(F)(F)F)c1C2c1ccccc1F (stereo not shown) [Compound 58]
IC50 [6]: < 100 nM

Cc1[nH]nc2c1C(c1ccccc1Cl)C1=C(CC(C)(C)CC1=O)N2 (stereo not shown) [Compound 13, 4-(2-chlorophenyl)-3,7,7-trimethyl-6,7,8,9-tetrahydro-2H-pyrazolo[3,4-b]quinolin-5(4H)-one]
IC50 [8]: < 100 nM
IC50 [6]: < 100 nM
ADP Glo Assay GSK3β vs CDK5 fold selectivity [7]: 6X
IC50 [1]: 101 to 1000 nM
